Reference: patent US20080003226A1, “Method to Reduce Hepatoxicity of Fas-Mediated Apoptosis-Inducing Agents” (APOXIS SA, priority 2004, published 2008)

Tested on: mesothelioma and ovarian cancer cell lines
Assay: Cytotoxicity of MegaFasL as single agent and in combination with cisplatin in vitro
Type: cell-based
Settings: compound alone
Procedure: Use of the Fas-mediated apoptosis inducing agents defined above and more particularly hexamers of the soluble fraction of FasL as defined above as an adjuvant with existing chemotherapies is another embodiment of the present invention. […] Actually, the antitumor effectiveness of MegaFasL as single agent and in combination with cisplatin was evaluated first on mesothelioma and ovarian cancer cell lines in vitro.

N.N.[Cl][Pt][Cl] [cisplatin]
cell death: only marginal cell death
